# Test results as given in patent US10898548B2, “Modulators of protein tyrosine phosphatase and uses thereof” (LEUVAS THERAPEUTICS, priority 2015, dated 2021).
# How the values were obtained:
# [1] = in vitro phosphatase assay of TAT-ICD (pNPP); format: biochemical; conditions: 50 μM TAT control peptide or 50 μM TAT-ICD; 30 minutes
# Experimental: Cells were then sonicated twice (6 sec, 15% \N) and centrifuged at 2000 rpm for 10 minutes. The supernatants were collected and centrifuged at 28000 rpm for 60 minutes and then the membrane pellets were dissolved in 20 mM tris pH 7.4. Equal amount of membrane fractions were added to pNPP buffer containing 20 mM tris, 10 mM DTT and 2 mM pNPP. Following, DMSO and 50 μM TAT control peptide or 50 μM TAT-ICD, in presence or absence of 200 μM Na3VO4 were added. After 30 minutes of incubation, levels of de-phosphorylation, in presence or absence of orthovanadate, were measured at 405 nm by a plate reader (Table 5). Shown is % fold increase over the pNPP buffer alone; mean values of 7 experiments in triplicate.
# [2] = tested on: U251 GBM cells; test: cell number by flow cytometry, U251 GBM cells; format: cell-based; conditions: input 5000
# Experimental: (§1) Cell viability and survival was measured using the MTT assay, a colorimetric assay for assessing cell metabolic activity set up under conditions where the absorption reflects the number of viable cells present (Table 21 and 22) and expressed as relative absorption at 570 nm. Early apoptosis was measured using VYBRANT DyeCycle Violet stain (Molecular Probes), a DNA-selective, cell membrane-permeant dye that can distinguish the compacted state of the nuclear chromatin in apoptotic cells as determined by flow cytometry and presented as the percent of cells that are apoptotic (Table 23 and 24). The actual number of cells following treatment with TAT-ICD or TAT alone (Table 25) was determined using flow cytometry compared to an input of 5,000 cells at time zero. To confirm apoptosis the TUNEL labeling assay, which detects DNA strand breaks in apoptotic cells by fluorescence microscopy, was also used to examine U251 cells treated with the PTPRG WD. Briefly, the assay used an optimized terminal transferase ([…]) to label 3′OH ends in genomic DNA with TMR-dUTP, thus allowing the measurement and quantification of cell death by apoptosis. U251 cells were pretreated for 1, 3 and 6 hours with 50 μM P1-WD. Then cells were fixed and permeabilized, incubated with TUNEL reaction mixture for 1 h at RT, and then stained with DAPI (for nuclei detection) and with Alexa670-Phalloidin (to detect actin in cell membranes). After the staining steps, cells were visualized with a confocal microscope.
# [3] = tested on: normal primary cortical murine neurons; test: MTT assay, normal primary cortical neurons; format: cell-based, mouse
# Experimental: as §1, with “Briefly, U251 GBM cells, normal primary cortical murine neurons and a mixed culture of murine microglia and astrocytes were treated for 24, 48 and 72 hours with no treatment (control), delivery peptide (P1 or TAT) or increasing concentrations of P1-WD or TAT-ICD. Cell” for “Cell”
# In striking contrast, treatment of normal primary cortical neurons isolated from mouse pups treated with TAT alone or TAT-ICD for 24-72 hours (Table 26) are mean and sd of absorption using the MTT assay as described above.
# [4] = tested on: COS7 cells; test: MTT assay, COS7 cells; format: cell-based
# [5] = tested on: DBTRG GBM cells; test: MTT survival assay, DBTRG GBM cells; format: cell-based, human
# Experimental: (§2) The DBTRG-O5MG (Denver Brain Tumor Research Group 05) cell line was established from tissue from a patient with glioblastoma multiforme who had been treated with local brain irradiation and multi drug chemotherapy (Kruse C A, et al. 1992 In vitro Cell Dev Biol, 28A(9-10):609-14). U87 is a commonly studied and thoroughly characterized grade IV glioma cell line derived from malignant glioma (Clark M J, et al, 2010 Plos Genet. 6(1):e1000832.). T98G is a glioblastoma multiforme cell line extracted from a person (Stein G H, 1979, J. Cell Physiol, 99(1):43-54). Proliferation and survival were assessed following TAT-ICD or control peptide (Table 29) or the P1-WD or control peptide treatment using the MTT assay as described above. Data are relative absorption; mean and standard deviation.
# [6] = tested on: U87 GBM cells; test: MTT survival assay, U87 GBM cells; format: cell-based
# Experimental: as §2
# [7] = 0.25 uM, 24 hours, Control 1116
# [8] = 0.25 uM, 48 hours, Control 1022
substance,measurement,setting,value
TAT-ICD: fusion recombinant protein SEQ ID 5: PTPRG intracellular domain aa 797-1445 fused to 13 aa TAT sequence,"phosphatase activity, % fold increase over the pNPP buffer alone",[1],4661.0%
same,number of cells,"[2]; TAT-ICD 0.5 μM, 6 hours, Control 5000",4676 cells per standard volume of medium
same,number of cells,"[2]; TAT-ICD 0.5 μM, 9 hours, Control 10000",5400 cells per standard volume of medium
same,number of cells,"[2]; TAT-ICD 0.5 μM, 24 hours, Control 10000",6094 cells per standard volume of medium
same,number of cells,"[2]; TAT-ICD 1 μM, 6 hours, Control 5000",2688 cells per standard volume of medium
same,number of cells,"[2]; TAT-ICD 1 μM, 9 hours, Control 10000",5434 cells per standard volume of medium
same,number of cells,"[2]; TAT-ICD 1 μM, 24 hours, Control 10000",5300 cells per standard volume of medium
same,number of cells,"[2]; TAT-ICD 2 μM, 6 hours, Control 5000",3943 cells per standard volume of medium
same,number of cells,"[2]; TAT-ICD 2 μM, 9 hours, Control 10000",3016 cells per standard volume of medium
same,number of cells,"[2]; TAT-ICD 2 μM, 24 hours, Control 10000",4500 cells per standard volume of medium
same,absorbance in the MTT assay,"[3]; 0.1 uM, 24 hours, Control 1116",1115
same,absorbance in the MTT assay,"[3]; 0.1 uM, 48 hours, Control 1022",989
same,absorbance in the MTT assay,"[3]; 0.1 uM, 72 hours, Control 994",1074
same,absorbance in the MTT assay,[3]; [7],928
same,absorbance in the MTT assay,[3]; [8],923
same,absorbance in the MTT assay,"[3]; 0.25 uM, 72 hours, Control 994",1204
same,absorbance in the MTT assay,"[3]; 0.5 uM, 24 hours, Control 1116",1164
same,absorbance in the MTT assay,"[3]; 0.5 uM, 48 hours, Control 1022",1109
same,absorbance in the MTT assay,"[3]; 0.5 uM, 72 hours, Control 994",1376
same,mean absorbance in the MTT assay,"[4]; 0.1 μM, 24 hours, CTRL 700",674
same,mean absorbance in the MTT assay,"[4]; 0.1 μM, 48 hours, CTRL 1267",1391
same,mean absorbance in the MTT assay,"[4]; 0.1 μM, 72 hours, CTRL 1500",1481
same,mean absorbance in the MTT assay,"[4]; 0.25 μM, 24 hours, CTRL 700",684
same,mean absorbance in the MTT assay,"[4]; 0.25 μM, 48 hours, CTRL 1267",1289
same,mean absorbance in the MTT assay,"[4]; 0.25 μM, 72 hours, CTRL 1500",1489
same,mean absorbance in the MTT assay,"[4]; 0.5 μM, 24 hours, CTRL 700",694
same,mean absorbance in the MTT assay,"[4]; 0.5 μM, 48 hours, CTRL 1267",1295
same,mean absorbance in the MTT assay,"[4]; 0.5 μM, 72 hours, CTRL 1500",1461
same,MTT relative absorption,"[5]; 0.3 μM, 24 hours, Control 941",772
same,MTT relative absorption,"[5]; 0.3 μM, 48 hours, Control 1274",770
same,MTT relative absorption,"[5]; 0.3 μM, 72 hours, Control 1667",1243
same,MTT relative absorption,"[5]; 0.5 μM, 24 hours, Control 941",773
same,MTT relative absorption,"[5]; 0.5 μM, 48 hours, Control 1274",623
same,MTT relative absorption,"[5]; 0.5 μM, 72 hours, Control 1667",1022
same,MTT relative absorption,"[5]; 1.0 μM, 24 hours, Control 941",669
same,MTT relative absorption,"[5]; 1.0 μM, 48 hours, Control 1274",577
same,MTT relative absorption,"[5]; 1.0 μM, 72 hours, Control 1667",712
same,MTT relative absorption,"[6]; 0.1 μM, 24 hours, CTRL 1200",1070
same,MTT relative absorption,"[6]; 0.1 μM, 48 hours, CTRL 1200",1167
same,MTT relative absorption,"[6]; 0.1 μM, 72 hours, CTRL 1336",813
same,MTT relative absorption,"[6]; 0.25 μM, 24 hours, CTRL 1200",1069
same,MTT relative absorption,"[6]; 0.25 μM, 48 hours, CTRL 1200",1062
same,MTT relative absorption,"[6]; 0.25 μM, 72 hours, CTRL 1336",650
same,MTT relative absorption,"[6]; 0.5 μM, 24 hours, CTRL 1200",1000
same,MTT relative absorption,"[6]; 0.5 μM, 48 hours, CTRL 1200",977
same,MTT relative absorption,"[6]; 0.5 μM, 72 hours, CTRL 1336",650
TAT (GRKKRRQRRRPPQ; listed as Homo sapiens) [reference compound],"phosphatase activity, % fold increase over the pNPP buffer alone",[1],191.7%
same,number of cells,"[2]; TAT 50 μM, 6 hours, Control 5000",4700 cells per standard volume of medium
same,number of cells,"[2]; TAT 50 μM, 9 hours, Control 10000",7000 cells per standard volume of medium
same,number of cells,"[2]; TAT 50 μM, 24 hours, Control 10000",11385 cells per standard volume of medium
same,absorbance in the MTT assay,"[3]; 0.1 uM, 24 hours, Control 1116",1150
same,absorbance in the MTT assay,"[3]; 0.1 uM, 48 hours, Control 1022",1151
same,absorbance in the MTT assay,"[3]; 0.1 uM, 72 hours, Control 994",1151
same,absorbance in the MTT assay,[3]; [7],908
same,absorbance in the MTT assay,[3]; [8],955
same,absorbance in the MTT assay,"[3]; 0.25 uM, 72 hours, Control 994",957
same,absorbance in the MTT assay,"[3]; 0.5 uM, 24 hours, Control 1116",1184
same,absorbance in the MTT assay,"[3]; 0.5 uM, 48 hours, Control 1022",1148
same,absorbance in the MTT assay,"[3]; 0.5 uM, 72 hours, Control 994",1224
same,mean absorbance in the MTT assay,"[4]; 0.1 μM, 24 hours, CTRL 700",649
same,mean absorbance in the MTT assay,"[4]; 0.1 μM, 48 hours, CTRL 1267",1320
same,mean absorbance in the MTT assay,"[4]; 0.1 μM, 72 hours, CTRL 1500",1495
same,mean absorbance in the MTT assay,"[4]; 0.25 μM, 24 hours, CTRL 700",624
same,mean absorbance in the MTT assay,"[4]; 0.25 μM, 48 hours, CTRL 1267",1250
same,mean absorbance in the MTT assay,"[4]; 0.25 μM, 72 hours, CTRL 1500",1388
same,mean absorbance in the MTT assay,"[4]; 0.5 μM, 24 hours, CTRL 700",650
same,mean absorbance in the MTT assay,"[4]; 0.5 μM, 48 hours, CTRL 1267",1289
same,mean absorbance in the MTT assay,"[4]; 0.5 μM, 72 hours, CTRL 1500",1341
same,MTT relative absorption,"[5]; 0.3 μM, 24 hours, Control 941",711
same,MTT relative absorption,"[5]; 0.3 μM, 48 hours, Control 1274",1031
same,MTT relative absorption,"[5]; 0.3 μM, 72 hours, Control 1667",1583
same,MTT relative absorption,"[5]; 0.5 μM, 24 hours, Control 941",826
same,MTT relative absorption,"[5]; 0.5 μM, 48 hours, Control 1274",1061
same,MTT relative absorption,"[5]; 0.5 μM, 72 hours, Control 1667",1591
same,MTT relative absorption,"[5]; 1.0 μM, 24 hours, Control 941",792
same,MTT relative absorption,"[5]; 1.0 μM, 48 hours, Control 1274",1005
same,MTT relative absorption,"[5]; 1.0 μM, 72 hours, Control 1667",1275
same,MTT relative absorption,"[6]; 0.1 μM, 24 hours, CTRL 1200",1200
same,MTT relative absorption,"[6]; 0.1 μM, 48 hours, CTRL 1200",1018
same,MTT relative absorption,"[6]; 0.1 μM, 72 hours, CTRL 1336",1343
same,MTT relative absorption,"[6]; 0.25 μM, 24 hours, CTRL 1200",1195
same,MTT relative absorption,"[6]; 0.25 μM, 48 hours, CTRL 1200",950
same,MTT relative absorption,"[6]; 0.25 μM, 72 hours, CTRL 1336",1200
same,MTT relative absorption,"[6]; 0.5 μM, 24 hours, CTRL 1200",1160
same,MTT relative absorption,"[6]; 0.5 μM, 48 hours, CTRL 1200",900
same,MTT relative absorption,"[6]; 0.5 μM, 72 hours, CTRL 1336",1235
